Source: publication PMC6268528, “3-Phenylcoumarins as Inhibitors of HIV-1 Replication” (Molecules, 2012)
Where two headings read alike, the source gives them in different places.

Key:
NF-κB [1] = test system: NF-κB; design: method as in PMID 15911030; conditions: comparison data, cited from earlier work
non-infected MT-2 cells [2] = test system: non-infected MT-2 cells; design: method as in PMID 15911030; conditions: comparison data; read-out: Toxicity CC50; cited from earlier work
HIV-1 Tat protein [3] = test system: HIV-1 Tat protein; design: method as in PMID 15911030; conditions: comparison data; cited from earlier work
HIV-1 [4] = test system: HIV-1; design: method as in PMID 15911030; conditions: comparison data; read-out: RV (VIH) IC50; cited from earlier work
[5] = test system: tetracycline-induced luciferase activity in HeLa-Tet-ON cells; design: method as in PMID 15911030; key: S: specific; U: unspecific modes of action; conditions: comparison data; cited from earlier work
HIV-1 Tat protein [6] = experiment: HeLa-Tat-Luc cells, HIV-1 LTR activated by Tat; format: cell-based
Description: (§1) In the characterization of anti-HIV activity, the effect of these coumarins on Tat and NF-κB functions has been evaluated in a similar manner as we described in a previous publication. We have used two transfected 5.1 cell lines, in which we measured NF-κB activation induced by TNFα [42] and HeLa-Tat-Luc cells, in which the HIV-1 LTR is directly activated by the HIV-1 Tat protein. Most of the compounds were submitted for further evaluation through a HeLa-Tet-ON assay in order to determine the selectivity of their action. To avoid missing compounds acting through another mechanism, all substances were also evaluated using a recombinant virus (RV) assay. In this system, a luciferase reporter gene was cloned in full-length infectious DNA. As a result, the measured luciferase activity is therefore proportional to viral replication.
(§2) The anti-HIV activity of these coumarins on Tat and NF-κB functions has been analysed. To this aim, we have used two stably transfected cell lines. The previously described 5.1 cell line is a Jurkat-derived clone stably transfected with a plasmid containing the luciferase gene under the control of HIV-LTR. In this cell clone, activation with TNFα induces NF-κB activation and subsequent HIV-1 expression. We have also analyzed the anti-HIV activity in HeLa-Tat-Luc cells, in which the HIV-1 LTR is directly activated by the HIV-1 Tat protein. A compound was considered active in one assay if it inhibited the target function by more than 50% (NF-κB) or 30% (Tat) at either 25 or 50 μM concentration. The active compounds were submitted for further evaluation through a HeLa-Tet-ON assay, as previously described. In the Hela-Tet-ON cells the luciferase expression is under control of an artificial promoter that can be activated by tetracycline. Therefore, compounds that inhibit tetracycline-induced luciferase activity were considered non-specific for luciferase-based anti-HIV assays and were not examined further, and those showing specific activity (non-inhibitors in HeLa-Tet-ON cells) were analysed using a recombinant virus (RV) assay. […] In this system, a luciferase reporter gene has been cloned in full-length infectious DNA. The measured luciferase activity is therefore directly proportional to the replication of the virus. This assay is more sensitive and reliable than classic infectious assays. Cell viability was evaluated in non-infected treated cultures following the same protocol as in the recombinant virus assay and measuring cell toxicity with a classical MTT assay. IC50 and CC50 were calculated using GraphPad Prism software [non-linear regression, log (inhibitor) vs. response].

non-infected MT-2 cells [7] = experiment: Cell viability, MTT assay in non-infected treated cultures; format: cell-based; design: Toxicity (%) CC50: unit not given here; conditions: MTT, non-infected cultures
Description: as §2

NF-κB [8] = experiment: 5.1 cell line + TNFα, HIV-LTR luciferase (NF-κB activation); format: cell-based
Description: as §1, §2

HIV-1 [9] = experiment: Recombinant virus (RV) assay, luciferase reporter virus on MT-2 cells; format: cell-based; conditions: Human immunodeficiency virus 1, MT2, read-out: RV (VIH) IC50
Description: We have synthesized fourteen 3-phenylcoumarin derivatives and evaluated their anti-HIV activity. Antiviral activity was assessed on MT-2 cells infected with viral clones carrying the luciferase gene as reporter. Inhibition of HIV transcription and Tat function were tested on cells stably transfected with the HIV-LTR and Tat protein. […] The antiviral effect of the 4-hydroxycoumarin derivative 19 correlates with its specific inhibition of Tat functions, while compound 8, 3-(2-chlorophenyl)coumarin, seems to act through a mechanism unrelated to the molecular targets considered in this research.
as §1, §2

[10] = test system: tetracycline-induced luciferase activity in HeLa-Tet-ON cells; experiment: HeLa-Tet-ON specificity assay; format: cell-based; design: key: S: specific; U: unspecific modes of action
Description: as §1, §2

Row | Structure (SMILES) | Antiviral activity 5.1 + TNFα 25 µM (NF-κB [1]; 25 µM) [%] | Antiviral activity 5.1 + TNFα 50 µM (NF-κB [1]; 50 µM) [%] | CC50 (non-infected MT-2 cells [2]) [µM] | Antiviral activity Hela-Tat-luc 50 µM (HIV-1 Tat protein [3]) [%] | IC50 (HIV-1 [4]) [µM] | HeLa-Tet-ON 50 µM (specific / unspecific) [5] | inhibition at 25 µM (HIV-1 Tat protein [6]; Human immunodeficiency virus 1, read-out: Antiviral activity Hela-Tat-luc 25 µM (inhibition of Tat function)) [%] | inhibition at 50 µM (HIV-1 Tat protein [6]; Human immunodeficiency virus 1, read-out: Antiviral activity Hela-Tat-luc 50 µM (inhibition of Tat function)) [%] | melting point [°C] | Toxicity (%) CC50 (non-infected MT-2 cells [7]) | inhibitory activity in the NF-κB test, in words (NF-κB [8]; 50 µM) | inhibition at 50 µM (NF-κB [8]; read-out: Antiviral activity 5.1 + TNFα 50 µM (inhibition of NF-κB function)) [%] | specificity of NF-κB inhibition, in words (NF-κB [8]; with HeLa-Tet-ON evaluation) | IC50 (HIV-1 [9]) [µM] | HeLa-Tet-ON 50 µM (specific / unspecific mode of action) [10]
1 | CC(C)=CCc1c(O)c(C(=O)C(C)C)c(O)c2c(-c3ccccc3)cc(=O)oc12 [Mesuol] | 71.0 ± 4.8 | 77.9 ± 4.9 | > 4 | 71.3 ± 8.9 | 2.5 | S |  |  |  |  |  |  |  |  | 
2 | O=c1oc2ccccc2cc1-c1ccc2c(c1)OCO2 [Compound 13, 3-(Benzo[d][1,3]dioxol-5-yl)-2H-chromen-2-one] |  |  |  |  |  |  | 32.8 ± 4.3 | 39.5 ± 2.3 | 168 to 170 | 16.7 ± 3.4 | fair inhibitory activity | 68.5 ± 3.4 | specific inhibitors of the NF-κB function | 138 ± 22.3 | S
